Laboratory results published in patent US9771378B2 (Denali Therapeutics, Inc., priority 2014, dated 2017).

Test system: Aβ42 (human neuroglioma H4 cells expressing human wild type APP751)
Experiment: In vitro cell screening assay with sandwich ELISA quantification of Aβ42 peptide
Assay type: cell-based
Settings: H4 cells stably expressing human wild type APP751; Pro293 chemically defined medium; compounds 0.003-10 μM; incubated overnight (16-18 h); supernatant Aβ42 by sandwich ELISA; normalized to DMSO and DAPT; read-out: Aβ42 H4 Prot Fre IC50
Description: Human neuroglioma H4 cells were transfected with a pcDNA3.1 plasmid expressing human wild type APP751 cDNA and a stable cell line was generated using G418 selection. Cells are plated at 15,000 cells/well in Costar 96-well plates and placed at 37° C. and 5% CO2. Six hours after plating, cells are washed three times with Pro293™ chemically defined medium, followed by addition of compounds (0.003-10 μM, final DMSO concentration of 0.33%). Plates were incubated overnight (16-18 h) and supernatant was removed for quantification of AP peptides by sandwich ELISA. Cytotoxicity was evaluated using Cell-Titer 96W AQueous One Solution Cell Proliferation Assay according to the manufacturer's protocol.
ELISA Measurements of Aβ Peptides
Aβ peptide levels were quantified by sandwich ELISA. 96-well plates are coated with C-terminal specific Aβ antibodies recognizing either Aβ37, Aβ38, Aβ40, Aβ42, Aβ43 or a N-terminal specific Aβ antibody to detect Aβ 1-x. Plates are then blocked overnight at 4° C. with 1% bovine serum albumin (BSA) in PBS-T. Plates are washed and 100 μl of cultured cell supernatant or synthetic Aβ peptide standards and a detection antibody (4G8-HRP) are applied to the blocked plate and incubated overnight at 4° C. The next day, wells are washed before the addition […] of detection substrate (TMB peroxidase). Plates are then read for absorbance at 450 nm on a Molecular Devices SpectraMax M5e Microplate Reader.
IC50 values were calculated from values reported as percent of DMSO controls using nonlinear regression, based on a sigmoidal dose-response (variable slope) model. GraphPAD software from Prism used for calculation.

Row | SMILES | IC50
1 | Cc1cc(-c2ccc(Nc3ncc4c(n3)N(C)C(c3ccccc3)CO4)cc2)ccn1 (racemic) [Example 24] | 155 nM
2 | COc1cc(Nc2ncc3c(n2)N(C)C(c2ccccc2Cl)CO3)ccc1-n1cnc(C)c1 (single isomer, unassigned; (+)) [Example 51B] | 58 nM
3 | COc1cc(Nc2ncc3c(n2)N(C)C(c2ccc(Cl)cc2C(F)(F)F)CO3)ccc1-n1cnc(C)c1 (single isomer, unassigned; (-)) [Example 112A] | 231 nM
4 | Cc1cn(-c2ncc(Nc3ncc4c(n3)N(C)C(c3cc(F)cc(F)c3)CO4)cc2Cl)cn1 (single isomer, unassigned; (-)) [Example 210B] | 2340 nM
5 | COc1cc(Nc2ncc3c(n2)N(C)C(c2cc(F)c(F)c(F)c2)CO3)ccc1-n1cnc(C)c1 (single isomer, unassigned; (-)) [Example 40A] | 279 nM
6 | Cc1cn(-c2ncc(Nc3ncc4c(n3)N(C)C(C(F)(F)F)CO4)cc2Cl)cn1 (single isomer, unassigned; (+)) [Example 229B] | 2850 nM
7 | COc1cc(Nc2ncc3c(n2)N(C)C(C2CC(F)(F)C2)CO3)cnc1-n1cnc(C)c1 (single isomer, unassigned; (-)) [Example 219B] | 398 nM
8 | Cc1cn(-c2ccc(Nc3ncc4c(n3)N(C)C(c3ccc(F)cc3)CO4)cc2F)cn1 (single isomer, unassigned; (-)) [Example 58B] | 1950 nM
9 | Cc1cn(-c2ncc(Nc3ncc4c(n3)N(C)C(c3cc(F)cc(F)c3)CO4)cc2Cl)cn1 (single isomer, unassigned; (+)) [Example 210A] | 41 nM
10 | Cc1cc(-c2ccc(Nc3ncc4c(n3)N(C)C(c3cc(F)c(F)c(F)c3)CO4)cc2F)ccn1 (single isomer, unassigned; (+)) [Example 36A] | 107 nM
11 | COc1cc(Nc2ncc3c(n2)N(C)C(c2cc(F)c(F)cc2Cl)CO3)ccc1-n1cnc(C)c1 (single isomer, unassigned; (-)) [Example 103B] | 219 nM
12 | COc1cc(Nc2ncc3c(n2)N(C)C(C2CCS(=O)(=O)CC2)CO3)ccc1-n1cnc(C)c1 (single isomer, unassigned; (+)) [Example 239B, (+)-4-(2-((3-methoxy-4-(4-methyl-1H-imidazol-1-yl)phenyl)amino)-8-methyl-7,8-dihydro-6H-pyrimido [5,4-b] [1, 4]oxazin-7-yl) tetrahydro-2H-thiopyran 1,1-dioxide] | 380 nM
13 | COc1cc(Nc2ncc3c(n2)N(C)C(c2cc(F)c(F)c(F)c2)CO3)ccc1-c1ccnc(C)c1 (single isomer, unassigned; (+)) [Example 39A] | 41 nM
14 | Cc1cc(-c2ccc(Nc3ncc4c(n3)N(C)C(Cc3ccccc3)CO4)cc2F)ccn1 (single isomer, unassigned; (+)) [Example 57A] | 118 nM
15 | COc1cc(Nc2ncc3c(n2)N2CCC(F)(F)C2CO3)ccc1-n1cnc(C)c1 (single isomer, unassigned; (-)) [Example 304A, (−)-7,7-difluoro-N-(3-methoxy-4-(4-methyl-1H-imidazol-1-yl)phenyl)-6a, 7,8,9-tetrahydro-6H-pyrimido [5,4-b] pyrrolo [1,2-d] [1, 4] oxazin-2-amine] | 274 nM
16 | COc1ccc(C2COc3cnc(Nc4ccc(-n5cnc(C)c5)c(OC)c4)nc3N2C)c(Cl)c1 (racemic) [Example 86] | 38 nM
17 | Cc1cn(-c2ccc(Nc3ncc4c(n3)N(C)C(c3ccccc3C(F)(F)F)CO4)cc2F)cn1 (single isomer, unassigned; (+)) [Example 84A] | 203 nM
18 | Cc1cn(-c2ccc(Nc3ncc4c(n3)N(C)C(c3cc(F)c(F)c(F)c3)CO4)cc2)cn1 (racemic) [Example 44] | 75 nM
19 | Cc1cn(-c2ccc(Nc3ncc4c(n3)N(C)C(c3cc(F)c(F)cc3C(F)(F)F)CO4)cc2F)cn1 (single isomer, unassigned) [Example 198A] | 1110 nM
20 | COc1cc(Nc2ncc3c(n2)N(C)C(C(F)(F)F)CO3)ccc1C#N (single isomer, unassigned; (-)) [Example 230B, (−)-2-methoxy-4-((8-methyl-7-(trifluoromethyl)-7,8-dihydro-6H-pyrimido [5,4-b] [1, 4]oxazin-2-yl)amino) benzonitrile] | 717 nM
21 | COc1cc(Nc2ncc3c(n2)N(C)C2(CC2)CO3)ccc1-c1cnn(C)c1 [Example 269] | 703 nM
22 | COc1cc(Nc2ncc3c(n2)N(C)C(c2cc(F)c(F)c(F)c2)CO3)ccc1-c1ccnc(C)c1 (single isomer, unassigned; (-)) [Example 39B] | 984 nM

Row | SMILES | IC50
23 | Cc1cn(-c2ccc(Nc3ncc4c(n3)N(C)C(c3ccccc3Cl)CO4)cc2F)cn1 (single isomer, unassigned; (-)) [Example 67B] | 643 nM
24 | COc1cc(Nc2ncc3c(n2)N(C)C2(CCCC2)CO3)ccc1-c1cnn(C)c1 [Example 264] | 260 nM
25 | Cc1cc(-c2ccc(Nc3ncc4c(n3)N(C)C(c3ccccc3C)CO4)cc2)ccn1 (racemic) [Example 29] | 297 nM
26 | Cc1cn(-c2ccc(Nc3ncc4c(n3)N(C)C(c3cc(C(F)(F)F)ccc3Cl)CO4)cc2F)cn1 (single isomer, unassigned; (+)) [Example 173A] | 72 nM
27 | COc1cc(Nc2ncc3c(n2)N(C)C(c2ccccc2C)CO3)ccc1-c1ccnc(C)c1 (single isomer, unassigned; (+)) [Example 35B] | 35 nM
28 | Cc1cn(-c2ccc(Nc3ncc4c(n3)N(C)C(C3CCOCC3)CO4)cc2F)cn1 (single isomer, unassigned; (-)) [Example 109B] | > 3000 nM
29 | COc1ccc(Cl)c(C2COc3cnc(Nc4cnc(-n5cnc(C)c5)c(OC)c4)nc3N2C)c1 (single isomer, unassigned; (-)) [Example 208B] | 136 nM
30 | COc1ccc(C2COc3cnc(Nc4cnc(-n5cnc(C)c5)c(OC)c4)nc3N2C)c(C)c1 (single isomer, unassigned; (-)) [Example 215B] | 96 nM
31 | Cc1cn(-c2ccc(Nc3ncc4c(n3)N(C)C(C)CO4)cc2C(F)F)cn1 (single isomer, unassigned; (+)) [Example 214A] | > 3000 nM
32 | COc1cc(Nc2ncc3c(n2)N(C)C(C2CC(F)(F)C2)CO3)cnc1-n1cnc(C)c1 (single isomer, unassigned; (+)) [Example 219A] | 25 nM
33 | Cc1cc(-c2ccc(Nc3ncc4c(n3)N(C)C(c3cc(F)cc(F)c3)CO4)cc2)ccn1 (single isomer, unassigned; (+)) [Example 28B] | 60 nM
34 | COc1nc(Nc2ncc3c(n2)N(C)C(c2cc(F)cc(F)c2)CO3)ccc1-n1cnc(C)c1 (single isomer, unassigned; (+)) [Example 179B] | 287 nM
35 | COc1cc(Nc2ncc3c(n2)N(C)C(C(F)(F)F)CO3)ccc1C#N (single isomer, unassigned; (+)) [Example 230A, (+)-2-methoxy-4-((8-methyl-7-(trifluoromethyl)-7,8-dihydro-6H-pyrimido [5,4-b] [1, 4]oxazin-2-yl)amino) benzonitrile] | > 3000 nM
36 | COc1cc(Nc2ncc3c(n2)N2C(=O)CCC2CO3)cnc1-n1cnc(C)c1 (single isomer, unassigned; (+)) [Example 302A, (+)-2-((5-methoxy-6-(4-methyl-1H-imidazol-1-yl)pyridin-3-yl)amino)-6,6a, 7,8-tetrahydro-9H-pyrimido [5,4-b] pyrrolo [1,2-d] [1, 4] oxazin-9-one] | > 3000 nM
37 | COc1cc(Cl)c(C2COc3cnc(Nc4ccc(-n5cnc(C)c5)c(OC)c4)nc3N2C)cc1Cl (racemic) [Example 89] | 23 nM
38 | COc1cc(Nc2ncc3c(n2)N2CC(F)(F)C[C@H]2CO3)cnc1-n1cnc(C)c1 [Example 298, (S)-8,8-difluoro-N-(5-methoxy-6-(4-methyl-1H-imidazol-1-yl)pyridin-3-yl)-6a, 7,8,9-tetrahydro-6H-pyrimido [5,4-b] pyrrolo [1,2-d] [1, 4] oxazin-2-amine] | 177 nM
39 | Cc1cn(-c2ccc(Nc3ncc4c(n3)N(C)C(c3cc(F)c(F)cc3F)CO4)cc2F)cn1 (single isomer, unassigned; (+)) [Example 98A] | 20 nM
40 | COc1cc(Nc2ncc3c(n2)N(C)C(Cc2ccccc2)CO3)ccc1-c1ccnc(C)c1 (single isomer, unassigned; (+)) [Example 68A] | 50 nM
41 | Cc1cn(-c2ccc(Nc3ncc4c(n3)N(C)C(C(F)(F)F)CO4)cc2C#N)cn1 (single isomer, unassigned; (+)) [Example 232A, (+)-2-(4-methyl-1H-imidazol-1-yl)-5-((8-methyl-7-(trifluoromethyl)-7,8-dihydro-6H-pyrimido [5,4-b] [1, 4]oxazin-2-yl)amino) benzonitrile] | 280 nM
42 | Cc1cn(-c2ccc(Nc3ncc4c(n3)N(C)C(C)CO4)cc2C#N)cn1 (single isomer, unassigned; (+)) [Example 205A, (+)-5-((7,8-dimethyl-7,8-dihydro-6H-pyrimido [5,4-b] [1, 4]oxazin-2-yl)amino)-2-(4-methyl-1H-imidazol-1-yl) benzonitrile] | 231 nM
43 | COc1cc(Nc2ncc3c(n2)N(C)[C@@H](C2CCC2)CO3)cnc1-n1cnc(C)c1 [Example 235] | 17 nM
